According to ChEMBL document CHEMBL1149604, “Disaccharide analogs as probes for glycosyltransferases in Mycobacterium tuberculosis” (Bioorg Med Chem, 2007):

Tests used:
[1] = test system: Mycolicibacterium smegmatis; experiment: Activity of Mycobacterial smegmatis-galactosyltransferase after 1 hr
[2] = test system: Mycolicibacterium smegmatis; experiment: Activity of Mycobacterial smegmatis-arabinosyltransferase after 1 hr

SMILES: CN(C)c1cccc2c(S(=O)(=O)NCCO[C@@H]3O[C@@H](C[C@H](CO)O[C@@H]4O[C@@H]([C@@H](O)CO)[C@H](O)[C@H]4O)[C@H](O)[C@H]3O)cccc12
- Km [1]: 7330 µM

SMILES: [N-]=[N+]=Nc1cccc2c(S(=O)(=O)NCCO[C@H]3O[C@H](CO[C@H]4O[C@H](CO)[C@@H](O)[C@@H]4O)[C@@H](O)[C@@H]3O)cccc12
- Km [2]: 3070 µM

SMILES: [N-]=[N+]=Nc1cccc2c(S(=O)(=O)NCCO[C@@H]3O[C@@H](C[C@H](CO)OC4O[C@@H]([C@@H](O)CO)[C@H](O)[C@H]4O)[C@H](O)[C@H]3O)cccc12 (stereo partly specified)
- Km [1]: 2770 µM

SMILES: CN(C)c1cccc2c(S(=O)(=O)NCCO[C@@H]3O[C@@H]([C@@H](O)CO[C@@H]4O[C@@H]([C@@H](O)CO)[C@H](O)[C@H]4O)[C@H](O)[C@H]3O)cccc12
- Km [1]: 2380 µM

SMILES: CN(C)c1cccc2c(S(=O)(=O)NCCO[C@H]3O[C@H](CO[C@H]4O[C@H](CO)[C@@H](O)[C@@H]4O)[C@@H](O)[C@@H]3O)cccc12
- Km [2]: 680 µM

SMILES: [N-]=[N+]=Nc1cccc2c(S(=O)(=O)NCCO[C@@H]3O[C@@H]([C@@H](O)CO[C@@H]4O[C@@H]([C@@H](O)CO)[C@H](O)[C@H]4O)[C@H](O)[C@H]3O)cccc12
- Km [1]: 1980 µM
